Measurements from patent US20030181436A1, “Treatment for AIDS, HIV, and other related diseases and compounds for use therewith” (priority 2001, published 2003).

Test system: HIV
Test: PBMC time of addition assay
Type: cell-based
From the text: FIGS. 18 and 19 show the results of the time of addition assay with the K and Z compound. In time of addition assays the timed addition of compounds after initial infection allows the identification of specific stages of virus replication. This is seen with the positive control compound AZT. AZT is a reverse transcriptase inhibitor. […] Thus it has an antiviral target that is occurring after completion of reverse transcription. […] In general since this time of addition uses multiple rounds of infection in the PBMCs versus a single round in cell lines systems, lower concentrations of compound will often shift the curve to the left. This is seen in FIG. 18.

Potassium Iodiscorbate [Compound K]
suppression of virus replication (6.4 μg/ml, added at 4 h): no inhibition
suppression of virus replication (6.4 μg/ml, added at 9 h): 71%
suppression of virus replication (64 μg/ml, added 49 h post infection): 75%
suppression of virus replication (64 μg/ml, added at 4 h): 35%
suppression of virus replication (64 μg/ml, added at 9 h): 87%
